Measured values as given in article PMC12458024, “Stabilizing a Native Fold of Alpha-Synuclein with Short Helix-Constrained Peptides” (JACS Au, 2025).
Entries after “also recorded” stand apart in the source; their conditions may differ. Positions of bridges follow the written chain, without caps; N, C: chain ends. Residues, ends and D or L forms follow the SMILES beside them.

How the values were obtained:
circular dichroism = conditions: 20 mM phosphate; pH 6.5; 30 °C; 20 uM
[1] = Circular dichroism: fractional helicity with and without DMPS SUVs (lipid binding); assay type: physicochemical; conditions: CD, 20 μM peptide, 20 mM phosphate buffer pH 6.5, 30 °C, mean of three independent measurements; for Fractional helicity (fH) with DMPS: 1000 μM DMPS vesicles; for Fractional helicity (fH) no DMPS: no lipid
Experimental: Far UV CD spectra scans were then recorded of the solutions on a Chirascan V100 (Applied Photophysics), at 30 °C, in a 1 mm path length quarts cuvette, scanning from 280–190 nm with a 1 nm bandwidth, averaged over 3 scans and blanked against the solutions containing the relevant DMPS vesicles in 20 mM phosphate buffer (pH 6.5).
Fractional helicity (fH) was calculated according to the equation fH=(θ222−θc)/(θ222∞−θc) where θ222∞ = (−44,000 + 250T)*(1 – k/Nr) and θc = 2220 – 53T. In these equations, the wavelength-dependent constant k = 2.4, Nr = the number of residues, and T is the temperature, 30 °C. ,

αS1–140 = target: T1, αS1–140 (Homo sapiens, UniProt P37840); assay: Lipid-induced αS aggregation assay (ThT kinetics); assay type: biochemical; conditions: 100 μM αS1–140, 50 μM ThT, 50 μM DMPS SUVs, 20 mM phosphate pH 6.5, 30 °C; peptide 100 and 500 μM; n = 3
T1 construct: pET21a plasmid encoding human wild-type αS1–140; made in house; host or cells: E. coli BL21 (DE3)
Experimental: Dry DMPS lipid powder was accurately weighed using a Sartorius ultramicro balance and dissolved in 20 mM sodium phosphate buffer (pH 6.5) to a final concentration of 2 mM. The lipid was solubilized by shaking in a 2 mL Eppendorf tube on a Thermomixer compact (Eppendorf) at 45 °C, 1400 rpm for 3 h. The solution was then freeze–thawed five times using dry ice and a thermomixer (45 °C, 500 rpm). Vesicle formation was completed by sonication, using a Bandelin Sonopuls sonicator equipped with a TS102 probe, set to 20% amplitude, for 15 cycles (30 s on/30 s off). Vesicles were freshly prepared on the day of use. The SUVs prepared have an average diameter of approximately 30–40 nm, as characterized by dynamic light scattering (DLS) as previously described. This corresponds to vesicle concentrations in the low micromolar range.
Lipid-induced aggregation experiments were monitored using a CLARIOstar fluorescence microplate reader (BMG Labtech) under quiescent conditions (no shaking) at 30 °C. Experiments were conducted in black, clear-bottom 96-well half-area polystyrene plates with a nonbinding surface (Corning #3881), sealed with aluminum Thermowell sealing tape (Corning #6570). Each well contained 100 μL of reaction volume, run in triplicate, comprising 100 μM αS, 50 μM ThT, 50 μM DMPS (monomeric equivalent), 0.01% sodium azide, and varying concentrations of peptide (0 μM to 1 mM), all in 20 mM phosphate buffer (pH 6.5).
Instrument settings included a focal height of 4.9 mm and a gain of 800, with an excitation filter of 440 ± 15 nm, an emission filter of 480 ± 15 nm, and a 460 nm dichroic cutoff. Readings were collected from the bottom optic using a spiral averaging (4 mm diameter) with 50 flashes per well, and measurements were taken every 1200 s. The outer wells of the plate were not used to avoid evaporation

[2] = Peptide stability in human serum; assay type: in vitro ADME; conditions: normal human serum, 30 μM peptide, 37 °C, analytical HPLC peak area normalized to t = 0, triplicate; read-out: Peptide remaining intact in human serum at 48 h
Experimental: Serum stability assays were performed in normal human serum. Peptide stocks were initially prepared at 600 μM in H2O, and 75 μL of this stock was added to 1425 μL of normal human serum (Merck), yielding a final concentration of 30 μM. Samples were incubated at 37 °C, and 100 μL aliquots were collected at designated time points (0, 1, 2, 3, 4, 6, 22, 24, and 48 h) and then immediately stored at −80 °C. After all time points, the samples were thawed and mixed with 300 μL of acetonitrile:water (3:1, v/v) by vortexing to ensure complete mixing. Following centrifugation at 14500 rpm for 20 min, 200 μL of the supernatant was analyzed by HPLC using a Phenominex Luna 5 μm C18 100 Å analytical column, eluted with a 0–50% acetonitrile gradient containing 0.1% TFA. Peak areas were integrated and normalized to the 0-h sample. Each peptide was tested in triplicate.

SH-SY5Y cells [3] = assay: Alamar Blue toxicity assay; assay type: cell-based, human; conditions: 0–20 μM RhoB-labeled peptide, 30–36 h, relative to untreated controls
Experimental: (§1) SH-SY5Y cells were plated at a density of 5,000 cells well^–1 in a half-area 96-well plate. Twenty-four hours after plating, the media was removed and replaced with media containing 10 or 20 μM of rhodamine-B labeled peptide or the equivalent volume of PBS. Cells were incubated with peptides for a further 30–36 h. As a positive control for cell lysis, 3 wells of cells were treated with 5% Triton-X 100 for 20 min, and then 20 μL of media was harvested from all wells for ToxiLight analysis according to the manufacturer’s instructions (Lonza Biologics PLC, LT07–217). Cells were then washed once with PBS and incubated for 90 min with a 1:10 dilution of AlamarBlue reagent (Invitrogen, DAL1025). Media was harvested and the fluorescence measured according to the manufacturer’s instructions. Cells were then washed twice with PBS and incubated with a 1:12.5 dilution of NucBlue (ThermoFisher Scientific, R37605) and a 1:500 dilution of CellTracker Deep Red (Invitrogen, C34565) in media for a further 30 min. Cells were then washed 2 more times in PBS and imaged.

SH-SY5Y cells [4] = assay: ToxiLight toxicity assay; assay type: cell-based, human; conditions: 0–20 μM RhoB-labeled peptide, 30–36 h, Triton X-100 positive control
Experimental: as §1

N2 C. elegans = conditions: dosed at L4, 0–100 μM, day 5 of adulthood
Experimental: The C. elegans strain N2 was used as the control, while the transgenic strain NL5901 (unc-54p::αS::YFP), which expresses αS fused to YFP in the body wall muscle cells, was used to model the PD motility phenotype. Worms were synchronized by bleaching with sodium hypochlorite, and the eggs were resuspended in M9 buffer and incubated overnight at 20 °C with shaking (50 rpm) to hatch. Larvae were then transferred to nematode growth medium (NGM) agar plates seeded with E. coli OP50 as a food source and incubated in the dark at 20 °C until they reached the L4 stage.
L4-stage worms were transferred to fresh NGM agar plates containing 75 μM 5-fluoro-2’deoxyuridine (FUdR), to prevent reproduction, and seeded with E. coli OP50 as a food source. […] Nematodes were incubated in the dark at 20 °C for 5 days. Following incubation, 15 worms per condition were picked using a worm pick and placed in a drop of M9 media on a microscope slide. Movements were recorded immediately for a period of 30 s. For each condition, 5 worms per video were manually scored for the number of body bends per minute. […] A body bend was defined as a full oscillation, where the head returned to a point on the same side.

| Fractional helicity (fH) with DMPS [1] | Fractional helicity (fH) no DMPS [1] | Effect on lipid-induced αS1–140 aggregation (ThT) (αS1–140) | Compound | helicity (circular dichroism) | remaining at 48 h, 30 μM [2] | Cytotoxicity, Alamar Blue (SH-SY5Y cells [3]) | Cytotoxicity, ToxiLight (SH-SY5Y cells [4]) | Thrashing rate of wild-type N2 worms (N2 C. elegans) |
| --- | --- | --- | --- | --- | --- | --- | --- | --- |
| – | – | – | CSCC[C@H](NC(=O)[C@H](Cc1ccccc1)NC(=O)[C@@H](NC(=O)[C@H](CC(=O)O)NC(C)=O)C(C)C)C(=O)N[C@@H](CCCCN)C(=O)NCC(=O)N[C@@H](CC(C)C)C(=O)N[C@@H](CO)C(=O)N[C@@H](CCCCN)C(=O)N[C@@H](C)C(=O)N[C@@H](CCCCN)C(N)=O (Ac-DVFMKGLSKAK-NH2) | 8.1% | – | – | – | – |
| 0.0% | 0.0% | enhanced αS aggregation | CSCC[C@@H]1NC(=O)[C@H](Cc2ccccc2)NC(=O)[C@H](C(C)C)NC(=O)[C@@H](NC(C)=O)CCCCNC(=O)C[C@@H](C(=O)NCC(=O)N[C@@H](CC(C)C)C(=O)N[C@@H](CO)C(=O)N[C@@H](CCCCN)C(=O)N[C@@H](C)C(=O)N[C@@H](CCCCN)C(N)=O)NC1=O [αS2–12(L1)] (Ac-KVFMDGLSKAK-NH2; lactam 1-5) | – | – | – | – | – |
| 14.5% | 30.9% | most effective inhibition | CSCC[C@@H]1NC(=O)[C@H](Cc2ccccc2)NC(=O)[C@@H](NC(=O)[C@H](CC(=O)O)NC(C)=O)CCCCNC(=O)C[C@@H](C(=O)N[C@@H](CC(C)C)C(=O)N[C@@H](CO)C(=O)N[C@@H](CCCCN)C(=O)N[C@@H](C)C(=O)N[C@@H](CCCCN)C(N)=O)NC(=O)[C@H](CCCCN)NC1=O [αS2–12(L2)] (Ac-DKFMKDLSKAK-NH2; lactam 2-6) | – | – | – | – | – |
| 27.7% | 12.4% | enhanced αS aggregation | CC(=O)N[C@@H](CC(=O)O)C(=O)N[C@H](C(=O)N[C@@H](Cc1ccccc1)C(=O)N[C@H]1CCCCNC(=O)C[C@@H](C(=O)N[C@@H](CCCCN)C(=O)N[C@@H](C)C(=O)N[C@@H](CCCCN)C(N)=O)NC(=O)[C@H](CC(C)C)NC(=O)CNC(=O)[C@H](CCCCN)NC1=O)C(C)C [αS2–12(L4)] (Ac-DVFKKGLDKAK-NH2; lactam 4-8) | – | – | – | – | – |
| 3.3% | 28.9% | – | CSCC[C@H](NC(=O)[C@H](Cc1ccccc1)NC(=O)[C@@H](NC(=O)[C@H](CC(=O)O)NC(C)=O)C(C)C)C(=O)N[C@H]1CCCCNC(=O)C[C@@H](C(=O)N[C@@H](C)C(=O)N[C@@H](CCCCN)C(N)=O)NC(=O)[C@H](CO)NC(=O)[C@H](CC(C)C)NC(=O)CNC1=O [αS2–12(L5)] (Ac-DVFMKGLSDAK-NH2; lactam 5-9) | – | – | – | – | – |
| – | – | – | CSCC[C@H](NC(=O)[C@H](Cc1ccccc1)NC(=O)[C@@H](NC(=O)[C@H](CC(=O)O)NC(C)=O)C(C)C)C(=O)N[C@@H](CCCCN)C(=O)N[C@H]1CCCCNC(=O)C[C@@H](C(=O)N[C@@H](CCCCN)C(N)=O)NC(=O)[C@H](CCCCN)NC(=O)[C@H](CO)NC(=O)[C@H](CC(C)C)NC1=O [αS2–12(L6)] (Ac-DVFMKKLSKDK-NH2; lactam 6-10) | 31.4% | 16% | No significant toxicity | No significant toxicity | no change in thrashing rate |
| 16.8% | 15.8% | enhanced αS aggregation | CSCC[C@H](NC(=O)[C@H](Cc1ccccc1)NC(=O)[C@@H](NC(=O)[C@H](CC(=O)O)NC(C)=O)C(C)C)C(=O)N[C@@H](CCCCN)C(=O)NCC(=O)N[C@H]1CCCCNC(=O)C[C@@H](C(N)=O)NC(=O)[C@H](C)NC(=O)[C@H](CCCCN)NC(=O)[C@H](CO)NC1=O [αS2–12(L7)] (Ac-DVFMKGKSKAD-NH2; lactam 7-11) | – | – | – | – | – |

| Compound | Fractional helicity (fH) with DMPS [1] | Fractional helicity (fH) no DMPS [1] | Effect on lipid-induced αS1–140 aggregation (ThT) (αS1–140) | helicity (circular dichroism) | remaining at 48 h, 30 μM [2] | Cytotoxicity, Alamar Blue (SH-SY5Y cells [3]) | Cytotoxicity, ToxiLight (SH-SY5Y cells [4]) | Thrashing rate of wild-type N2 worms (N2 C. elegans) |
| --- | --- | --- | --- | --- | --- | --- | --- | --- |
| CSCC[C@@H]1NC(=O)[C@@H](NC(=O)[C@@H](NC(=O)[C@H](CC(=O)O)NC(C)=O)C(C)C)CCCCNC(=O)C[C@@H](C(=O)N[C@@H](CO)C(=O)N[C@@H](CCCCN)C(=O)N[C@@H](C)C(=O)N[C@@H](CCCCN)C(N)=O)NC(=O)CNC(=O)[C@H](CCCCN)NC1=O [αS2–12(L3)] (Ac-DVKMKGDSKAK-NH2; lactam 3-7) | 2.9% | 14.6% | most effective inhibition; also recorded: greatest inhibition of αS1–140 aggregation | – | – | – | – | – |
